Measurements reported in PubChem BioAssay (NCI).
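Exposure lasted 48 hours, with cells grown in 96-well plates and compounds tested at five concentrations. Here, GI50 denotes the concentration required for 50% inhibition of growth. TGI marks complete inhibition of growth.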

Experiments:
Assay in all cases: growth of human tumour cells (NCI), 48 h
HT29 colon = test system: HT29 colon
HOP-92 NSCLC = test system: HOP-92 NSCLC
CAKI-1 renal = test system: CAKI-1 renal
NCI/ADR-RES ovarian = test system: NCI/ADR-RES ovarian
HS 578T breast = test system: HS 578T breast
SN12C renal = test system: SN12C renal
SF-295 CNS = test system: SF-295 CNS
MOLT-4 leukemia = test system: MOLT-4 leukemia
OVCAR-5 ovarian = test system: OVCAR-5 ovarian
MDA-MB-231 breast = test system: MDA-MB-231 breast
CCRF-CEM leukemia = test system: CCRF-CEM leukemia
HL-60(TB) leukemia = test system: HL-60(TB) leukemia
LOX IMVI melanoma = test system: LOX IMVI melanoma
T-47D breast = test system: T-47D breast
SR leukemia = test system: SR leukemia
BT-549 breast = test system: BT-549 breast
U251 CNS = test system: U251 CNS
SW-620 colon = test system: SW-620 colon
OVCAR-8 ovarian = test system: OVCAR-8 ovarian
SK-MEL-28 melanoma = test system: SK-MEL-28 melanoma
M14 melanoma = test system: M14 melanoma
MCF7 breast = test system: MCF7 breast
SNB-19 CNS = test system: SNB-19 CNS
A498 renal = test system: A498 renal
K-562 leukemia = test system: K-562 leukemia
COLO 205 colon = test system: COLO 205 colon
NCI-H23 lung = test system: NCI-H23 lung
OVCAR-3 ovarian = test system: OVCAR-3 ovarian
SF-539 CNS = test system: SF-539 CNS
NCI-H460 lung = test system: NCI-H460 lung
SF-268 CNS = test system: SF-268 CNS
NCI-H226 lung = test system: NCI-H226 lung
A549 NSCLC = test system: A549 NSCLC
UACC-62 melanoma = test system: UACC-62 melanoma
MDA-MB-435 = test system: MDA-MB-435
SK-MEL-2 melanoma = test system: SK-MEL-2 melanoma
HOP-62 NSCLC = test system: HOP-62 NSCLC
TK-10 renal = test system: TK-10 renal
PC-3 prostate = test system: PC-3 prostate
ACHN renal = test system: ACHN renal
OVCAR-4 ovarian = test system: OVCAR-4 ovarian
UO-31 renal = test system: UO-31 renal
HCC-2998 colon = test system: HCC-2998 colon
KM12 colon = test system: KM12 colon
IGROV1 ovarian = test system: IGROV1 ovarian
786-0 renal = test system: 786-0 renal
SK-MEL-5 melanoma = test system: SK-MEL-5 melanoma
MALME-3M melanoma = test system: MALME-3M melanoma
SNB-75 CNS = test system: SNB-75 CNS
RPMI-8226 leukemia = test system: RPMI-8226 leukemia
HCT-116 colon = test system: HCT-116 colon
SK-OV-3 ovarian = test system: SK-OV-3 ovarian
UACC-257 melanoma = test system: UACC-257 melanoma
DU-145 prostate = test system: DU-145 prostate
RXF 393 renal = test system: RXF 393 renal
NCI-H522 lung = test system: NCI-H522 lung

CC(C)(C)c1ccc(S(=O)(=O)N[C@H]2CC[C@H]3[C@@H]4CCc5cc(O)ccc5[C@H]4CC[C@]23C)cc1 was tested, and the GI50 (HT29 colon) was 1.96 µM, the TGI (HT29 colon) was 3.74 µM and the GI50 (HOP-92 NSCLC) was 1.53 µM. For the same compound, the TGI (HOP-92 NSCLC) was 4.2 µM, the GI50 (CAKI-1 renal) was 2.28 µM and the TGI (CAKI-1 renal) was 6.26 µM. For the same compound, the GI50 (NCI/ADR-RES ovarian) was 2.23 µM, the TGI (NCI/ADR-RES ovarian) was 5.21 µM and the GI50 (HS 578T breast) was 2.39 µM. It also gave a TGI (HS 578T breast) of 6.98 µM, a GI50 (SN12C renal) of 1.76 µM and a TGI (SN12C renal) of 3.55 µM. For the same compound, the GI50 (SF-295 CNS) was 1.66 µM, the TGI (SF-295 CNS) was 3.16 µM and the GI50 (MOLT-4 leukemia) was 2.46 µM. It also gave a TGI (MOLT-4 leukemia) of 9.53 µM, a GI50 (OVCAR-5 ovarian) of 2.08 µM and a TGI (OVCAR-5 ovarian) of 4.2 µM. It also gave a GI50 (MDA-MB-231 breast) of 1.91 µM, a TGI (MDA-MB-231 breast) of 4.13 µM and a GI50 (CCRF-CEM leukemia) of 2.63 µM. The TGI (CCRF-CEM leukemia) was 7.79 µM, the GI50 (HL-60(TB) leukemia) was 2.31 µM and the TGI (HL-60(TB) leukemia) was 6.11 µM. The GI50 (LOX IMVI melanoma) was 1.77 µM, the TGI (LOX IMVI melanoma) was 3.17 µM and the GI50 (T-47D breast) was 2.59 µM. For the same compound, the TGI (T-47D breast) was 8.76 µM, the GI50 (SR leukemia) was 2.17 µM and the TGI (SR leukemia) was 6.04 µM. It also gave a GI50 (BT-549 breast) of 1.75 µM, a TGI (BT-549 breast) of 3.32 µM and a GI50 (U251 CNS) of 1.89 µM. For the same compound, the TGI (U251 CNS) was 4.45 µM, the GI50 (SW-620 colon) was 3.18 µM and the TGI (SW-620 colon) was 11.8 µM. For the same compound, the GI50 (OVCAR-8 ovarian) was 2.02 µM, the TGI (OVCAR-8 ovarian) was 4.59 µM and the GI50 (SK-MEL-28 melanoma) was 1.71 µM. It also gave a TGI (SK-MEL-28 melanoma) of 3.18 µM, a GI50 (M14 melanoma) of 2.02 µM and a TGI (M14 melanoma) of 4.04 µM. For the same compound, the GI50 (MCF7 breast) was 1.74 µM, the TGI (MCF7 breast) was 3.57 µM and the GI50 (SNB-19 CNS) was 3.54 µM. The TGI (SNB-19 CNS) was 18 µM, the GI50 (A498 renal) was 1.31 µM and the TGI (A498 renal) was 2.72 µM. The GI50 (K-562 leukemia) was 2.46 µM, the TGI (K-562 leukemia) was 8.64 µM and the GI50 (COLO 205 colon) was 1.85 µM. It also gave a TGI (COLO 205 colon) of 3.3 µM, a GI50 (NCI-H23 lung) of 2.03 µM and a TGI (NCI-H23 lung) of 4.28 µM. It also gave a GI50 (OVCAR-3 ovarian) of 2.09 µM, a TGI (OVCAR-3 ovarian) of 3.95 µM and a GI50 (SF-539 CNS) of 1.7 µM. The TGI (SF-539 CNS) was 3.14 µM, the GI50 (NCI-H460 lung) was 1.98 µM and the TGI (NCI-H460 lung) was 4.16 µM. For the same compound, the GI50 (SF-268 CNS) was 3.94 µM, the TGI (SF-268 CNS) was 14 µM and the GI50 (NCI-H226 lung) was 1.75 µM. For the same compound, the TGI (NCI-H226 lung) was 3.51 µM, the GI50 (A549 NSCLC) was 2.14 µM and the TGI (A549 NSCLC) was 7.24 µM. It also gave a GI50 (UACC-62 melanoma) of 2.16 µM, a TGI (UACC-62 melanoma) of 5.91 µM and a GI50 (MDA-MB-435) of 1.79 µM. It also gave a TGI (MDA-MB-435) of 3.33 µM, a GI50 (SK-MEL-2 melanoma) of 2.45 µM and a TGI (SK-MEL-2 melanoma) of 4.89 µM. For the same compound, the GI50 (HOP-62 NSCLC) was 2.07 µM, the TGI (HOP-62 NSCLC) was 3.98 µM and the GI50 (TK-10 renal) was 3.79 µM. It also gave a TGI (TK-10 renal) of 12.1 µM, a GI50 (PC-3 prostate) of 2.1 µM and a TGI (PC-3 prostate) of 7.57 µM. It also gave a GI50 (ACHN renal) of 2.28 µM, a TGI (ACHN renal) of 5.67 µM and a GI50 (OVCAR-4 ovarian) of 2.91 µM. The TGI (OVCAR-4 ovarian) was 10.2 µM, the GI50 (UO-31 renal) was 1.81 µM and the TGI (UO-31 renal) was 4.11 µM. It also gave a GI50 (HCC-2998 colon) of 2.8 µM, a TGI (HCC-2998 colon) of 7.1 µM and a GI50 (KM12 colon) of 1.93 µM. The TGI (KM12 colon) was 3.87 µM, the GI50 (IGROV1 ovarian) was 3.74 µM and the TGI (IGROV1 ovarian) was 10.8 µM. The GI50 (786-0 renal) was 2.19 µM, the TGI (786-0 renal) was 5.02 µM and the GI50 (SK-MEL-5 melanoma) was 1.65 µM. For the same compound, the TGI (SK-MEL-5 melanoma) was 3.05 µM, the GI50 (MALME-3M melanoma) was 2.78 µM and the TGI (MALME-3M melanoma) was 7.13 µM. It also gave a GI50 (SNB-75 CNS) of 2.08 µM, a TGI (SNB-75 CNS) of 6.38 µM and a GI50 (RPMI-8226 leukemia) of 1.88 µM. For the same compound, the TGI (RPMI-8226 leukemia) was 4.51 µM, the GI50 (HCT-116 colon) was 1.63 µM and the TGI (HCT-116 colon) was 2.98 µM. The GI50 (SK-OV-3 ovarian) was 3.12 µM, the TGI (SK-OV-3 ovarian) was 8 µM and the GI50 (UACC-257 melanoma) was 2.45 µM. It also gave a TGI (UACC-257 melanoma) of 6.78 µM, a GI50 (DU-145 prostate) of 3.93 µM and a TGI (DU-145 prostate) of 12.9 µM. It also gave a GI50 (RXF 393 renal) of 1.61 µM, a TGI (RXF 393 renal) of 3.46 µM and a GI50 (NCI-H522 lung) of 2.5 µM. For the same compound, the TGI (NCI-H522 lung) was 7.13 µM.
